Values of other authors as cited in US20180116920A1, “MULTI-STEP PROCESS FOR NO PRODUCTION” (BSN medical GmbH, priority 2015, published 2018).

Columns and labels:
[1] = generally assumed

O=C1O[C@H]([C@@H](O)CO)C(O)=C1O [ascorbic acid]
standard redox potential (at pH 7 and 25° C.): −0.04 V

N[C@@H](CS)C(=O)O [cysteine]
redox potential (cysteine-cystine, 25° C., pH 7.0): −0.2 Volt

nitrogen monoxide
maximum solubility of NO in aqueous solution [1]: approximately 2 mM
